The record followed here is ChEMBL document CHEMBL1123817, “X-ray crystal structure of the opioid ligand naltrexonazine” (J Med Chem, 1987).

The experiment deals with Opioid receptor (Rattus norvegicus, UniProt P33533+P34975+P33535). In words: Inhibition of [3H]DAMPGO binding was determined using standard binding assay in rat brain homogenates against opioid receptor. Type of experiment: tissue-based.
`Oc1ccc2c3c1O[C@H]1/C(=N/N=C4\CC[C@@]5(O)[C@H]6Cc7ccc(O)c8c7[C@@]5(CCN6CC5CC5)[C@H]4O8)CC[C@@]4(O)[C@@H](C2)N(CC2CC2)CC[C@]314` (mixture of isomers) [NALTREXONAZINE] displayed an IC50 of 0.35 nM.

As to `Oc1ccc2c3c1O[C@H]1/C(=N/N=C4\CC[C@@]5(O)[C@H]6Cc7ccc(O)c8c7[C@@]5(CCN6CC5CC5)[C@H]4O8)CC[C@@]4(O)[C@@H](C2)N(CC2CC2)CC[C@]314` (stereo in doubt; anti) [NALTREXONAZINE], the IC50 is reported as 0.45 nM. As for `Oc1ccc2c3c1O[C@H]1/C(=N/N=C4\CC[C@@]5(O)[C@H]6Cc7ccc(O)c8c7[C@@]5(CCN6CC5CC5)[C@H]4O8)CC[C@@]4(O)[C@@H](C2)N(CC2CC2)CC[C@]314` (stereo in doubt; syn) [NALTREXONAZINE], the figure is 0.47 nM.

As usually defined, the IC50 is the concentration at which inhibition is half-maximal. Read a low IC50 as higher potency.
